Experimental data from ChEMBL document CHEMBL1201862, “PubChem BioAssay data set” (2004).
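Assay format: 96-well plates, 48-hour exposure. GI50 marks 50% less growth.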 The source made the active and inactive calls. Rule as the data show it: active = GI50 up to about 1.1 µM and inactive = higher.

Key:
Assay in all cases: NCI tumour cell line growth inhibition, 48 h
SF-295 = test system: SF-295
TK-10 = test system: TK-10
ACHN = test system: ACHN
MDA-MB-231 = test system: MDA-MB-231
NCI-H226 = test system: NCI-H226
SNB-75 = test system: SNB-75
SK-MEL-28 = test system: SK-MEL-28
CAKI-1 = test system: CAKI-1
SN12C = test system: SN12C
HCT-116 = test system: HCT-116
PC-3 = test system: PC-3
M14 = test system: M14
OVCAR-5 = test system: OVCAR-5
OVCAR-3 = test system: OVCAR-3
MCF7 = test system: MCF7
KM12 = test system: KM12
MDA-MB-435 = test system: MDA-MB-435
786-0 = test system: 786-0
HCT-15 = test system: HCT-15
NCI-H23 = test system: NCI-H23
UACC-62 = test system: UACC-62
NCI/ADR-RES = test system: NCI/ADR-RES
UO-31 = test system: UO-31
IGROV-1 = test system: IGROV-1
LOX IMVI = test system: LOX IMVI
SF-539 = test system: SF-539
OVCAR-8 = test system: OVCAR-8
U-251 = test system: U-251
RXF 393 = test system: RXF 393
K562 = test system: K562
SK-MEL-2 = test system: SK-MEL-2
SR = test system: SR
NCI-H522 = test system: NCI-H522
Hs-578T = test system: Hs-578T
MOLT-4 = test system: MOLT-4
HL-60 = test system: HL-60
RPMI-8226 = test system: RPMI-8226
SW-620 = test system: SW-620
OVCAR-4 = test system: OVCAR-4
DU-145 = test system: DU-145
HOP-62 = test system: HOP-62
Malme-3M = test system: Malme-3M
CCRF-CEM = test system: CCRF-CEM
A498 = test system: A498
SK-MEL-5 = test system: SK-MEL-5
UACC-257 = test system: UACC-257
COLO 205 = test system: COLO 205
T47D = test system: T47D
HT-29 = test system: HT-29
EKVX = test system: EKVX
SF-268 = test system: SF-268
NCI-H460 = test system: NCI-H460
A549 = test system: A549
HCC 2998 = test system: HCC 2998
SK-OV-3 = test system: SK-OV-3
HOP-92 = test system: HOP-92
MDA-N = test system: MDA-N

## O=[N+]([O-])c1cc(Cl)c(Cl)cc1[N+](=O)[O-]
SF-295
  GI50: 3.08 µM (inactive)
TK-10
  GI50: 3.55 µM (inactive)
ACHN
  GI50: 2.56 µM (inactive)
MDA-MB-231
  GI50: 2.25 µM (inactive)
NCI-H226
  GI50: 3.89 µM (inactive)
SNB-75
  GI50: 3.6 µM (inactive)
SK-MEL-28
  GI50: 2.64 µM (inactive)
CAKI-1
  GI50: 2.34 µM (inactive)
SN12C
  GI50: 1.91 µM (inactive)
HCT-116
  GI50: 20.1 µM (inactive)
PC-3
  GI50: 1.74 µM (inactive)
M14
  GI50: 3.51 µM (inactive)
OVCAR-5
  GI50: 2.51 µM (inactive)
OVCAR-3
  GI50: 1.48 µM (inactive)
MCF7
  GI50: 2.06 µM (inactive)
KM12
  GI50: 3.27 µM (inactive)
MDA-MB-435
  GI50: 4.07 µM (inactive)
786-0
  GI50: 2.8 µM (inactive)
HCT-15
  GI50: 2.85 µM
NCI-H23
  GI50: 2.14 µM (inactive)
UACC-62
  GI50: 2.23 µM (inactive)
NCI/ADR-RES
  GI50: 4.18 µM (inactive)
UO-31
  GI50: 1.93 µM (inactive)
IGROV-1
  GI50: 1.98 µM (inactive)
LOX IMVI
  GI50: 2.37 µM (inactive)
SF-539
  GI50: 2.13 µM (inactive)
OVCAR-8
  GI50: 2.91 µM (inactive)
U-251
  GI50: 2 µM (inactive)
RXF 393
  GI50: 1.63 µM (inactive)
K562
  GI50: 2.43 µM (inactive)
SK-MEL-2
  GI50: 2.44 µM (inactive)
SR
  GI50: 1.89 µM (inactive)
NCI-H522
  GI50: 1.87 µM (inactive)
Hs-578T
  GI50: 13.9 µM (inactive)
MOLT-4
  GI50: 0.212 µM (active)
HL-60
  GI50: 1.9 µM (inactive)
RPMI-8226
  GI50: 4.17 µM (inactive)
SW-620
  GI50: 2.91 µM (inactive)
OVCAR-4
  GI50: 2.48 µM (inactive)
DU-145
  GI50: 2.07 µM (inactive)
HOP-62
  GI50: 2.74 µM (inactive)
Malme-3M
  GI50: 2.74 µM (inactive)
CCRF-CEM
  GI50: 5.94 µM (inactive)
A498
  GI50: 18.5 µM (inactive)
SK-MEL-5
  GI50: 14.6 µM (inactive)
UACC-257
  GI50: 2.15 µM (inactive)
COLO 205
  GI50: 5.77 µM (inactive)
T47D
  GI50: 3.24 µM (inactive)
HT-29
  GI50: 4.16 µM (inactive)
EKVX
  GI50: 2.83 µM (inactive)
SF-268
  GI50: 1.81 µM (inactive)
NCI-H460
  GI50: 3.24 µM (inactive)
A549
  GI50: 2.29 µM (inactive)

## COC(=O)CSc1[nH]c2nc(C)nc(Nc3ccccc3)c2c1C#N
SF-295
  GI50: > 10 µM (inactive)
TK-10
  GI50: > 10 µM (inactive)
MDA-MB-231
  GI50: > 10 µM (inactive)
SNB-75
  GI50: > 10 µM (inactive)
SK-MEL-28
  GI50: > 10 µM (inactive)
CAKI-1
  GI50: > 10 µM (inactive)
SN12C
  GI50: > 10 µM (inactive)
PC-3
  GI50: > 10 µM (inactive)
M14
  GI50: > 10 µM (inactive)
MCF7
  GI50: > 10 µM (inactive)
KM12
  GI50: > 10 µM (inactive)
MDA-MB-435
  GI50: > 10 µM (inactive)
786-0
  GI50: > 10 µM (inactive)
HCT-15
  GI50: > 10 µM
NCI-H23
  GI50: > 10 µM (inactive)
UACC-62
  GI50: > 10 µM (inactive)
HCC 2998
  GI50: > 10 µM (inactive)
IGROV-1
  GI50: > 10 µM (inactive)
LOX IMVI
  GI50: > 10 µM (inactive)
OVCAR-8
  GI50: > 10 µM (inactive)
SK-OV-3
  GI50: > 10 µM (inactive)
RXF 393
  GI50: > 10 µM (inactive)
K562
  GI50: > 10 µM (inactive)
SR
  GI50: > 10 µM (inactive)
MOLT-4
  GI50: > 10 µM (inactive)
HL-60
  GI50: > 10 µM (inactive)
RPMI-8226
  GI50: > 10 µM (inactive)
SW-620
  GI50: > 10 µM (inactive)
OVCAR-4
  GI50: > 10 µM (inactive)
DU-145
  GI50: > 10 µM (inactive)
HOP-62
  GI50: > 10 µM (inactive)
Malme-3M
  GI50: > 10 µM (inactive)
CCRF-CEM
  GI50: > 10 µM (inactive)
SK-MEL-5
  GI50: > 10 µM (inactive)
UACC-257
  GI50: > 10 µM (inactive)
COLO 205
  GI50: > 10 µM (inactive)
T47D
  GI50: > 10 µM (inactive)
HT-29
  GI50: > 10 µM (inactive)
HOP-92
  GI50: 9.42 µM (inactive)
EKVX
  GI50: > 10 µM (inactive)
SF-268
  GI50: > 10 µM (inactive)
MDA-N
  GI50: > 10 µM (inactive)
A549
  GI50: > 10 µM (inactive)
